The values below come from patent US12459951B2, “Compounds that interact with RAS superfamily proteins for treatment of cancers, inflammatory diseases, rasopathies, and fibrotic disease” (SHY Therapeutics, LLC, priority 2022, dated 2025).

For one assay, the target named is T1, Rho-A (Homo sapiens, UniProt P61586).
T1 construct: made in house
Description: Ras GTP Binding Domain Inhibition Assay (Ras Superfamily Assay). To be noted: read-out: Rho-A: % inh.. The essentials:
(§1)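 Binding of 100 nM fluorescent GTP (Cy3 or Cy5, 45 min, room temperature) was read after washes from plate-captured His-tagged protein. Beforehand, compounds at 20 μM or in dilution series for IC50 sat 3 h on the protein in Tris buffer pH 7.4 or 7.0 with 1% DMSO, Sos GEF optionally added for the last hour.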

A further assay relates to KRas Q61H mutant. The assay is described as above. To be noted: 20 μM compound. The essentials: as §1
In a further assay the test system is KRas G12C mutant. Described as above. To be noted: 20 μM compound. The essentials: as §1
Assay [1] deals with Smad2/Smad3 phosphorylation. Briefly: Phospho-Smad2/3 Inhibition Assay (western blot), Panc-1. The class given is cell-based, human. To be noted: at 10 μM, Panc-1 pancreatic cancer cell line; starred symbols = activation. The essentials: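 Western blotting of lysates (15-50 μg protein) read phosphorylation of Smad2 Ser465/467 and Smad3 Ser423/425. Before lysis, Panc-1 cells got 1 h of 10 ng/ml TGF-b1 following 3 h compound exposure at 37° C (10 μM final, or serial dilutions for IC50, 0.3% DMSO) after overnight 0.5% FBS starvation.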
On the technique in general: In western blotting, separated proteins are transferred to a membrane and probed.

T1 sequence (P61586 whole entry): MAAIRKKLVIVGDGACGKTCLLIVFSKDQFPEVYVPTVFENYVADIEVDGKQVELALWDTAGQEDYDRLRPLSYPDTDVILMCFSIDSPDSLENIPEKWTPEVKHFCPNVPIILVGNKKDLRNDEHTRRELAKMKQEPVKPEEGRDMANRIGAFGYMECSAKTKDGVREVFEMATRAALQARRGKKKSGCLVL

For the compound `CO[C@H]1CC[C@@H](Nc2nc(-c3nccn3C)nn3cc(-c4ccn(C(C)C)n4)c(C)c23)C1` (racemic) [Compound 1, rac 6-(1-Isopropyl-1H-pyrazol-3-yl)-N-((1R,3S)-3-methoxycyclopentyl)-5-methyl-2-(1-methyl-1H-imidazol-2-yl)pyrrolo[2,1-f][1,2,4]triazin-4-amine], the inhibition at 20 µM at Rho-A was found to be 0%. Also, in the assay with KRas Q61H mutant (with SOS), the “KRas Q61H mutant + SOS: % inh.” value was 0 (0 = 0% inhibition). Besides, the “KRas Q61H mutant: % inh.” value in the assay with KRas Q61H mutant (without SOS) was 0 (0 = 0% inhibition). The “KRas G12C mutant + SOS: % inh.” value with KRas G12C mutant (with SOS) was 0 (0 = 0% inhibition). Moreover, the “KRas G12C mutant: % inh.” value in the assay with KRas G12C mutant (without SOS) is listed as 0 (0 = 0% inhibition).

Turning to `COc1cc(Nc2nc(-c3nccn3C)nn3cc(-c4ccn(C(C)C)n4)c(C)c23)ccn1` [Compound 87, 6-(1-Isopropyl-1H-pyrazol-3-yl)-N-(2-methoxypyridin-4-yl)-5-methyl-2-(1-methyl-1H-imidazol-2-yl)pyrrolo[2,1-f][1,2,4]triazin-4-amine], the “% inh of Smad2/3 phosphorylation in Panc-1” value (shortened to “% inh … in Panc-1”) in assay [1] is listed as “B* (B* = 26-45% activation)”.

As to `COCCNc1nc(-c2nccn2C)nn2cc(-c3ccn(C(C)C)n3)c(C)c12` [Compound 5, 6-(1-Isopropyl-1H-pyrazol-3-yl)-N-(2-methoxyethyl)-5-methyl-2-(1-methyl-1H-imidazol-2-yl)pyrrolo[2,1-f][1,2,4]triazin-4-amine], the inhibition at 20 µM at Rho-A was in the range of 26 to 49%.

On to `Cc1c(-c2ccn(C(C)C)n2)cn2nc(-c3nccn3C)nc(Nc3ccn(C4CC4)n3)c12` [Compound 84, N-(1-Cyclopropyl-1H-pyrazol-3-yl)-6-(1-isopropyl-1H-pyrazol-3-yl)-5-methyl-2-(1-methyl-1H-imidazol-2-yl)pyrrolo[2,1-f][1,2,4]triazin-4-amine], for which the “% inh … in Panc-1” value in assay [1] is given as “C* (C* = 46-75% activation)”.

As for `COCc1csc(Nc2nc(-c3nccn3C)nn3cc(-c4ccn(C(C)C)n4)c(C)c23)n1` [Compound 79, N-(6-(1-Isopropyl-1H-pyrazol-3-yl)-5-methyl-2-(1-methyl-1H-imidazol-2-yl)pyrrolo[2,1-f][1,2,4]triazin-4-yl)-4-(methoxymethyl)thiazol-2-amine], the “% inh … in Panc-1” value in assay [1] is “B* (B* = 26-45% activation)”.

As to `COc1cccnc1Nc1nc(-c2nccn2C)nn2cc(-c3ccn(C(C)C)n3)c(C)c12` [Compound 89, 6-(1-Isopropyl-1H-pyrazol-3-yl)-N-(3-methoxypyridin-2-yl)-5-methyl-2-(1-methyl-1H-imidazol-2-yl)pyrrolo[2,1-f][1,2,4]triazin-4-amine], in assay [1], the “% inh … in Panc-1” value was “C* (C* = 46-75% activation)”.

As to `Cc1c(-c2ccn(C(C)C)n2)cn2nc(-c3nccn3C)nc(Nc3cnn(C(C)C)n3)c12` [Compound 77, 6-(1-Isopropyl-1H-pyrazol-3-yl)-N-(2-isopropyl-2H-1,2,3-triazol-4-yl)-5-methyl-2-(1-methyl-1H-imidazol-2-yl)pyrrolo[2,1-f][1,2,4]triazin-4-amine], the “% inh … in Panc-1” value in assay [1] is on record as “C (C = 46-75% inhibition)”.

Take `Cc1c(-c2ccn(C(C)C)n2)cn2nc(-c3nccn3C)nc(Nc3cn(C(C)C)nn3)c12` [Compound 78, N-(1-Isopropyl-1H-1,2,3-triazol-4-yl)-6-(1-isopropyl-1H-pyrazol-3-yl)-5-methyl-2-(1-methyl-1H-imidazol-2-yl)pyrrolo[2,1-f][1,2,4]triazin-4-amine]: the “% inh … in Panc-1” value in assay [1] is recorded as “A (A = 1-25% inhibition)”.

Take `COc1nccc(Nc2nc(-c3nccn3C)nn3cc(-c4ccn(C(C)C)n4)c(C)c23)n1` [Compound 86, 6-(1-Isopropyl-1H-pyrazol-3-yl)-N-(2-methoxypyrimidin-4-yl)-5-methyl-2-(1-methyl-1H-imidazol-2-yl)pyrrolo[2,1-f][1,2,4]triazin-4-amine]: the “% inh … in Panc-1” value in assay [1] is on record as “B* (B* = 26-45% activation)”.

Turning to `COc1cnc(Nc2nc(-c3nccn3C)nn3cc(-c4ccn(C(C)C)n4)c(C)c23)cn1` [Compound 83, 6-(1-Isopropyl-1H-pyrazol-3-yl)-N-(5-methoxypyrazin-2-yl)-5-methyl-2-(1-methyl-1H-imidazol-2-yl)pyrrolo[2,1-f][1,2,4]triazin-4-amine], the “% inh … in Panc-1” value in assay [1] is on record as “B* (B* = 26-45% activation)”.

`COc1ncc(Nc2nc(-c3nccn3C)nn3cc(-c4ccn(C(C)C)n4)c(C)c23)cn1` [Compound 80, 6-(1-Isopropyl-1H-pyrazol-3-yl)-N-(2-methoxypyrimidin-5-yl)-5-methyl-2-(1-methyl-1H-imidazol-2-yl)pyrrolo[2,1-f][1,2,4]triazin-4-amine]: in assay [1], the “% inh … in Panc-1” value is “B* (B* = 26-45% activation)”.

In the case of `Cc1c(-c2ccn(C(C)C)n2)cn2nc(-c3nccn3C)nc(Nc3cc4n(n3)CCO4)c12` [Compound 91, N-(6-(1-Isopropyl-1H-pyrazol-3-yl)-5-methyl-2-(1-methyl-1H-imidazol-2-yl)pyrrolo[2,1-f][1,2,4]triazin-4-yl)-2,3-dihydropyrazolo[5,1-b]oxazol-6-amine], the “% inh … in Panc-1” value in assay [1] was 0 (0 = 0% inhibition).

For `CCc1nc(Nc2nc(-c3nccn3C)nn3cc(-c4ccn(C(C)C)n4)c(C)c23)nn1C` [Compound 76, N-(5-Ethyl-1-methyl-1H-1,2,4-triazol-3-yl)-6-(1-isopropyl-1H-pyrazol-3-yl)-5-methyl-2-(1-methyl-1H-imidazol-2-yl)pyrrolo[2,1-f][1,2,4]triazin-4-amine], in assay [1], the “% inh … in Panc-1” value is “B (B = 26-45% inhibition)”.

Consider `Cc1c(-c2ccn(C(C)C)n2)cn2nc(-c3nccn3C)nc(Nc3nnc(C4CC4)[nH]3)c12` [Compound 81, N-(5-Cyclopropyl-4H-1,2,4-triazol-3-yl)-6-(1-isopropyl-1H-pyrazol-3-yl)-5-methyl-2-(1-methyl-1H-imidazol-2-yl)pyrrolo[2,1-f][1,2,4]triazin-4-amine], for which, in assay [1], the “% inh … in Panc-1” value is listed as “A* (A* = 1-25% activation)”.

As for `COc1ncncc1Nc1nc(-c2nccn2C)nn2cc(-c3ccn(C(C)C)n3)c(C)c12` [Compound 88, 6-(1-Isopropyl-1H-pyrazol-3-yl)-N-(4-methoxypyrimidin-5-yl)-5-methyl-2-(1-methyl-1H-imidazol-2-yl)pyrrolo[2,1-f][1,2,4]triazin-4-amine], the “% inh … in Panc-1” value in assay [1] is reported as “C* (C* = 46-75% activation)”.

For the compound `Cc1c(-c2ccn(C(C)C)n2)cn2nc(-c3nccn3C)nc(Nc3ncc(C4CC4)o3)c12` [Compound 90, 5-Cyclopropyl-N-(6-(1-isopropyl-1H-pyrazol-3-yl)-5-methyl-2-(1-methyl-1H-imidazol-2-yl)pyrrolo[2,1-f][1,2,4]triazin-4-yl)oxazol-2-amine], the “% inh … in Panc-1” value in assay [1] was “C* (C* = 46-75% activation)”.

In the case of `COc1ncccc1Nc1nc(-c2nccn2C)nn2cc(-c3ccn(C(C)C)n3)c(C)c12` [Compound 85, 6-(1-Isopropyl-1H-pyrazol-3-yl)-N-(2-methoxypyridin-3-yl)-5-methyl-2-(1-methyl-1H-imidazol-2-yl)pyrrolo[2,1-f][1,2,4]triazin-4-amine], in assay [1], the “% inh … in Panc-1” value is on record as “D (D = 76-100% inhibition)”.
